Data: patent publication US11649240B2, “Substituted 4-phenylpiperidines, their preparation and use” (The Trustees of Columbia University in the City of New York, priority 2014, dated 2023)
Counter-ions that a name gives are not always drawn.

Assays:
[1] = test system: Abca4−/− mice; assay: Bisretinoid accumulation in eyes of Abca4−/− mice; type: in vivo, mouse; details: Abca4−/− mice starting at 17 weeks old, 25 mg/kg for 12 weeks
Method: (§1) Abca4−/− mice have A2E levels in the ˜15-19 pmoles/eye range at 17 weeks old. Mice, starting at 17 weeks old, were treated with 25 mg/kg of Compound 81 for 12 weeks.

[2] = molecular target: serum RBP4 (Mus musculus (Mouse), UniProt Q00724); assay: Serum RBP4 levels in Abca4−/− mice; type: in vivo; details: 25 mg/kg for 12 weeks
Method: as §1

[3] = test system: RBP4-TTR interaction; details: cited from earlier work
[4] = test system: serum RBP4 and retinol; details: in vivo; cited from earlier work

Q: Which results are given for `O=C(c1n[nH]c2c1CCNC2)N1CCC(c2cccc(F)c2C(F)(F)F)CC1` [Compound 30, (4-(3-Fluoro-2-(trifluoromethyl)phenyl)piperidin-1-yl) (4,5,6,7-tetrahydro-1H-pyrazolo[3,4-c]pyridin-3-yl)methanone Hydrochloride]?
A: bisretinoid accumulation in Abca4−/− mouse model ([1]; present-tense example): inhibit bisretinoid accumulation; serum RBP4 reduction in treated mice ([2]; present-tense example): significant serum RBP4 reduction

Q: For `O=C(c1n[nH]c2c1CCNC2)N1CCC(c2ccc(F)c(F)c2C(F)(F)F)CC1` [Compound 34], which “bisretinoid accumulation in Abca4−/− mouse model” value (“bisretinoid accumulation” below) ([1]; present-tense example) is on record?
A: inhibit bisretinoid accumulation

Q: And the “serum RBP4 reduction in treated mice” value ([2]; present-tense example)?
A: significant serum RBP4 reduction

Q: Which “bisretinoid accumulation” value ([1]; present-tense example) does the source give for `O=C(c1n[nH]c2c1CNCC2)N1CCC(c2ccc(F)c(F)c2C(F)(F)F)CC1` [Compound 36, (4-(3,4-Difluoro-2-(trifluoromethyl)phenyl)piperidin-1-yl)(4,5,6,7-tetrahydro-1H-pyrazolo[4,3-c]pyridin-3-yl)methanone Trifluoroacetic Acid Salt] here?
A: inhibit bisretinoid accumulation

Q: What about the “serum RBP4 reduction in treated mice” value ([2]; present-tense example) of the same compound?
A: significant serum RBP4 reduction

Q: What does the source list for `O=C(c1n[nH]c2c1CNC2)N1CCC(c2ccc(F)c(F)c2C(F)(F)F)CC1` [Compound 38, (4-(3,4-Difluoro-2-(trifluoromethyl)phenyl)piperidin-1-yl)(1,4,5,6-tetrahydropyrrolo[3,4-c]pyrazol-3-yl)methanone Hydrochloride]?
A: bisretinoid accumulation in Abca4−/− mouse model ([1]; present-tense example): inhibit bisretinoid accumulation; serum RBP4 reduction in treated mice ([2]; present-tense example): significant serum RBP4 reduction

Q: For `O=C(c1n[nH]c2c1CCNC2)N1CCC(c2cccc(F)c2Cl)CC1` [Compound 40, (4-(2-Chloro-3-fluorophenyl)piperidin-1-yl) (4,5,6,7-tetrahydro-1H-pyrazolo[3,4-c]pyridin-3-yl)methanone Hydrochloride], which “bisretinoid accumulation” value ([1]; present-tense example) is on record?
A: inhibit bisretinoid accumulation

Q: What about the “serum RBP4 reduction in treated mice” value ([2]; present-tense example) of the same compound?
A: significant serum RBP4 reduction

Q: Which “bisretinoid accumulation” value ([1]; present-tense example) does the source give for `O=C(c1n[nH]c2c1CNCC2)N1CCC(c2cccc(F)c2Cl)CC1` [Compound 42, (4-(2-Chloro-3-fluorophenyl)piperidin-1-yl)(4,5,6,7-tetrahydro-1H-pyrazolo[4,3-c]pyridin-3-yl)methanone Hydrochloride] here?
A: inhibit bisretinoid accumulation

Q: What about the “serum RBP4 reduction in treated mice” value ([2]; present-tense example) of the same compound?
A: significant serum RBP4 reduction

Q: For `CC(=O)N1CCc2c(C(=O)N3CCC(c4ccc(F)c(F)c4C(F)(F)F)CC3)n[nH]c2C1` [Compound 81, 1-(3-(4-(3,4-Difluoro-2-(trifluoromethyl)phenyl)piperidine-1-carbonyl)-4,5-dihydro-1H-pyrazolo[3,4-c]pyridin-6 (7H)-yl)ethanone], which “bisretinoid accumulation” value [1] is on record?
A: inhibited bisretinoid accumulation

Q: And the “serum RBP4 reduction in treated mice” value [2]?
A: significant serum RBP4 reduction

Q: What does the source list for `CC1=C(/C=C/C(C)=C/C=C/C(C)=C/C(=O)Nc2ccc(O)cc2)C(C)(C)CCC1` [fenretinide, N-(4-hydroxy-phenyl)retinamide]?
A: disruption of RBP4-TTR interaction [3]: disrupt the RBP4-TTR interaction; ocular all-trans retinol uptake and visual cycle [4]: inhibit ocular all-trans retinol uptake and slow down the visual cycle
